According to patent US9034792B2, “Antifungal compositions” (DSM IP ASSETS B.V., priority 2011, dated 2015):
Values joined by “and” are separate entries in the source; they are usually repeats but may differ in a detail not shown here. Equal values may be shown once.

Experiments:
Type in all cases: in vivo
Fusarium proliferatum = experiment: Treatment of wounded bananas inoculated with Fusarium proliferatum; details: 20° C.
Procedure: Four organic, unripe (green) bananas were used per treatment. The peel of each banana was wounded thrice using a cork borer according to the method described by de Lapeyre de Bellaire and Dubois (1987). Subsequently, each wound was inoculated with 15 μl of a Fusarium proliferatum suspension containing 1×10^5 of spores/ml. […] In addition, the antifungal compositions comprised 1.00% (w/w) methylhydroxyethylcellulose (MHEC), 0.40% (w/w) xanthan gum, 0.20% (w/w) anti-foaming agent, 0.30% (w/w) citric acid, 0.39% (w/w) lactic acid and 0.11% (w/w) potassium sorbate. The pH of the compositions was 4. […] The treated, unripe bananas were incubated in a closed box in the dark at 20° C. and a relative air humidity of 95%, which was obtained in the presence of a saturated Na2HPO4 aqueous solution. During the first 10 days of incubation, a ripe (yellow) banana was included in the closed box to elevate the ethylene gas level and thus induce ripening of the treated, unripe bananas.
(§1) The expected antifungal activity (E in %) of the combined antifungal composition comprising both active ingredients was calculated according to the Colby equation (Colby, 1967): E=X+Y−[(X·Y)/100] wherein X and Y are the observed antifungal activities (in %) of the individual active ingredients X and Y, respectively. If the observed antifungal activity (O in %) of the combination exceeds the expected antifungal activity (E in %) of the combination and the synergy factor O/E is thus >1.0, the combined application of the active ingredients leads to a synergistic antifungal effect.
The degree of mould growth on the banana wounds was assessed according to the two methods described in Example 3.

Penicillium italicum = experiment: Treatment of wounded mandarins inoculated with Penicillium italicum; details: 20° C., 250 ppm natamycin
Procedure: Ten fresh, organic mandarins were used per treatment. The peel of each mandarin was wounded once using a cork borer according to the method described by de Lapeyre de Bellaire and Dubois (1987). Subsequently, each wound was inoculated with 10 μl of a Penicillium italicum suspension containing 1×10^4 of spores/ml. […] The pH of the compositions was 4. A composition without natamycin or fluoxastrobin was used as control.
as §1, with “The treated mandarins were incubated in a closed box in the dark at 20° C. and assessed on mould growth after 10, 15, 19, 22 and 27 days of incubation. The antifungal activity (in %) of the individual active ingredients was determined by calculating the reduction in mould growth observed on the mandarins treated with the antifungal composition in comparison to the mould growth on the mandarins treated with the control composition. The” for “The”
A composition without natamycin or trifloxystrobin was used as control. The antifungal activity (in %) of the individual and combined active ingredients on mandarins was assessed after 8, 10 and 19 days of incubation according to the method described in Example 9.

Botrytis cinerea = experiment: Treatment of wounded strawberries inoculated with Botrytis cinerea; details: 20° C.
Procedure: Twelve fresh, organic strawberries were used per treatment. Each strawberry was wounded with a 0.5 mm long cut and each wound was inoculated with 10 μl of a Botrytis cinerea suspension containing 1×10^5 of spores/ml. […] The antifungal composition also comprised 1.00% (w/w) methylhydroxyethylcellulose (MHEC), 0.40% (w/w) xanthan gum, 0.20% (w/w) anti-foaming agent, 0.30% (w/w) citric acid, 0.39% (w/w) lactic acid and 0.11% (w/w) potassium sorbate. The pH of the compositions was 4.
as §1, with “The treated strawberries were incubated in a closed box in the dark at 20° C. and assessed on mould growth after 4, 5, 7 and 8 days of incubation. […] The” for “The”, “effect. […]” for “effect.”

[1] = 21 days, 500 ppm natamycin, 1000 ppm fluoxastrobin or both
[2] = 27 days, 250 ppm natamycin, 500 ppm fluoxastrobin or both
[3] = 27 days, 500 ppm natamycin, 1000 ppm fluoxastrobin or both
[4] = 10 days, 500 ppm fluoxastrobin or both
[5] = 15 days, 500 ppm fluoxastrobin or both
[6] = 19 days, 500 ppm fluoxastrobin or both
[7] = 22 days, 500 ppm fluoxastrobin or both
[8] = 27 days, 500 ppm fluoxastrobin or both
[9] = 27 days, 500 ppm natamycin, 1000 ppm trifloxystrobin or both
[10] = 8 days, 400 ppm trifloxystrobin or both
[11] = 10 days, 400 ppm trifloxystrobin or both
[12] = 19 days, 400 ppm trifloxystrobin or both
[13] = 3 days, 50 ppm natamycin, 250 ppm trifloxystrobin or both
[14] = 5 days, 50 ppm natamycin, 250 ppm trifloxystrobin or both
[15] = 5 days, 250 ppm natamycin, 500 ppm trifloxystrobin or both
[16] = 5 days, 500 ppm natamycin, 1000 ppm trifloxystrobin or both
[17] = 7 days, 250 ppm natamycin, 500 ppm trifloxystrobin or both
[18] = 7 days, 500 ppm natamycin, 1000 ppm trifloxystrobin or both
[19] = 8 days, 250 ppm natamycin, 500 ppm trifloxystrobin or both
[20] = 8 days, 500 ppm natamycin, 1000 ppm trifloxystrobin or both
[21] = 9 days, 250 ppm natamycin, 500 ppm trifloxystrobin or both

Compound | Number of moulded wounds/total number of 12 wounds (Fusarium proliferatum; [1]) | Observed antifungal activity O (%) (Fusarium proliferatum; [1]) | Observed antifungal activity O (%) (Fusarium proliferatum; [2]) | Number of moulded wounds/total number of 12 wounds (Fusarium proliferatum; [3]) | Observed antifungal activity O (%) (Fusarium proliferatum; [3]) | Observed antifungal activity O (%) (Penicillium italicum; [4]) | Observed antifungal activity O (%) (Penicillium italicum; [5]) | Observed antifungal activity O (%) (Penicillium italicum; [6]) | Observed antifungal activity O (%) (Penicillium italicum; [7]) | Observed antifungal activity O (%) (Penicillium italicum; [8]) | Number of moulded wounds/total number of 12 wounds (Fusarium proliferatum; [9]) | Observed antifungal activity O (%) (Fusarium proliferatum; [9]) | Observed antifungal activity O (%) (Penicillium italicum; [10]) | Observed antifungal activity O (%) (Penicillium italicum; [11]) | Observed antifungal activity O (%) (Penicillium italicum; [12]) | Observed antifungal activity O (%) (Botrytis cinerea; [13]) | Observed antifungal activity O (%) (Botrytis cinerea; [14]) | Number of moulded strawberries/total number of 12 strawberries (Botrytis cinerea; [15]) | Number of moulded strawberries/total number of 12 strawberries (Botrytis cinerea; [16]) | Observed antifungal activity O (%) (Botrytis cinerea; [16]) | other results
CO/N=C(/C1=NOCCO1)c1ccccc1Oc1ncnc(Oc2ccccc2Cl)c1F [Fluoxastrobin, fluoxastrobin] | 10 and 10/12 | 42% | 31% | 12 and 12/12 | 7% | 28% | 24% | 6% | 4% | 0% |  |  |  |  |  |  |  |  |  |  | 
CON=C(C(=O)OC)c1ccccc1CON=C(C)c1cccc(C(F)(F)F)c1 [Trifloxystrobin, trifloxystrobin] |  |  |  |  |  |  |  |  |  |  | 10 and 10/12 | 75% | 61% | 42% | 0% | 50% | 7% | 12 and 12/12 | 12 and 12/12 | 0% | Observed antifungal activity O (%) (Botrytis cinerea; [17]): 0%; Observed antifungal activity O (%) (Botrytis cinerea; [18]): 6%; Observed antifungal activity O (%) (Botrytis cinerea; [19]): 0%; Observed antifungal activity O (%) (Botrytis cinerea; [20]): 6%; Observed antifungal activity O (%) (Botrytis cinerea; [21]): 0%
natamycin | 6 and 6/12 | 78% | 4% | 12 and 12/12 | 63% | 54% | 19% | 5% | 5% | 5% | 12 and 12/12 | 63% | 83% | 54% | 5% | 64% | 17% | 12 and 12/12 | 12 and 12/12 | 31% | Observed antifungal activity O (%) (Botrytis cinerea; [17]): 10%; Observed antifungal activity O (%) (Botrytis cinerea; [18]): 13%; Observed antifungal activity O (%) (Botrytis cinerea; [19]): 2%; Observed antifungal activity O (%) (Botrytis cinerea; [20]): 0%; Observed antifungal activity O (%) (Botrytis cinerea; [21]): 0%
